Assay results taken from US11464733B2, “Enema for rectal application” (Dr. Falk Pharma GmbH, priority 2016, dated 2022).

How the values were obtained:
acidophilic leucocyte = experiment: Same trial: hematology checks, leukocyte fractionation; type: in vivo, human
[1] = tested on: serous ACTH (adrenocorticotropic hormone); experiment: Same trial: blood biochemistry check, serous ACTH density; type: in vivo, human
[2] = tested on: patients with active ulcerative colitis; experiment: Same trial: safety, adverse events; type: in vivo, human
Method: (§1) Superiority of the budesonide compared with placebo for mucosal healing as the primary endpoint are investigated for patients with active ulcerative colitis when budesonide 2 mg is rectally administered twice a day for 6 weeks by a double-blind comparative study with placebo as a control, and the safety thereof was investigated.
(§2) Furthermore, the efficacy and safety of administering were investigated, to patients with inflammatory bowel disease who have been administered 1.5 to 2.5 mg of budesonide twice a day for 6 weeks and shown signs of healing but no mucous membrane healing, 1.5 to 2.5 mg of budesonide twice a day for an additional 6 weeks (for a total of 12 weeks) (clinical trial number: Japic CTI—142704).
(§3) The test drug or control drug is rectally administered twice a day (once in the morning and once in the evening), after defecation, if possible. The number of injections per dose is one, the administration period is 6 weeks, if no mucous membrane healing occurred (an endoscope view score of 0 points), an administration period of 12 weeks can be used, and the drug is administered until the evening before the evaluation. The dose of budesonide in each group is 4 mg/day for the twice a day group, and 0 mg/day for the placebo group. The subjects with a 12-week administration period included 20 subjects in the budesonide administered group, and 18 subjects in the placebo group.

[3] = tested on: patients with active ulcerative colitis; experiment: Placebo-controlled double-blind trial: mucosal endoscopy, MMDAI endoscopic finding score; type: in vivo, human; details: for Number of subjects with MMDAI endoscopic finding score 0 / Number of subjects with MMDAI endoscopic finding score 1 / Number of subjects with MMDAI endoscopic finding score 2 / Number of subjects with MMDAI endoscopic finding score 3 / Percentage of subjects with MMDAI endoscopic finding score 0 / Percentage of subjects with MMDAI endoscopic finding score 1 / Percentage of subjects with MMDAI endoscopic finding score 2 / Percentage of subjects with MMDAI endoscopic finding score 3: 2 mg rectal foam twice a day, 20 cases
Method: Placebo-controlled randomized double-blind multicenter collaborative parallel group comparison test
as §1, §2
For the trial, an aerosol with fixed dose injection type for rectal injection (rectal foaming agent) is used as a test drug, in which 25 mL (1.35 g) of white creamy foam containing 2 mg of budesonide is released by one injection. As a remission induction therapeutic agent of ulcerative colitis in active phase where the lesion is confined to the rectum and sigmoid colon, the aerosol for rectal injection is approved in Europe at a dosage and dose of budesonide 2 mg once a day (trade name: Budenofalk 2 mg/dose rectal foam, manufactured by Dr. Falk Pharma GmbH).
The subjects are ulcerative colitis patients in active phase, and are divided into a group administered the test drug twice a day (hereafter, the budesonide-administered group), and a group administered the control drug (hereinafter, the placebo group).
as §3
The score by the doctor was used for the initial test, and after an administration period of 6 weeks, whether the prescription was continued for 6 more weeks or not. The score by the central judgment committee was used as the judgement of effectiveness. […] Furthermore, the change of the endoscope finding score from 6th week to 12th week of each subject of placebo group is shown in Table 2, and the change in the endoscope finding score from 6th week to 12th week of each subject of the budesonide-administered group is shown in Table 3.

serous cortisol = experiment: Same trial: blood biochemistry check, serous cortisol density; type: in vivo, human
[4] = cited from earlier work
[5] = 0th week (before prescription), 20 cases analysed
[6] = 12th week (prescription end), 19 cases analysed
[7] = After observation, 20 cases analysed
[8] = 0 week (before administration), 12-week subjects
[9] = Table 3 total over 6th week scores, of 20
[10] = Table 3 total over 6th week scores, unmeasured listed separately, of 20
[11] = change from 6th to 12th week, 2 mg twice a day, of 20

SMILES: CCCC1O[C@@H]2C[C@H]3[C@@H]4CCC5=CC(=O)C=C[C@]5(C)[C@H]4[C@@H](O)C[C@]3(C)[C@]2(C(=O)CO)O1 (mixture of isomers) [Budesonide, (+)-[(RS)-16α,17α-Butylidenedioxy-11β,21-dihydroxy-1,4-pregnadiene-3,20-dione]]
- Percentage of the acidophilic leucocyte of leukocyte fractionation (acidophilic leucocyte; 4th week to 12th week compared with 0th week and placebo group): decrease
- Other items of hematology and blood biochemistry checks (acidophilic leucocyte; in vivo): no clear fluctuation in other items could be seen
- Serous ACTH: applicable examples (cases below standard value) [1, 5]: 3
- Serous ACTH: percentage of cases below standard value [1, 5]: 15.0%
- Serous ACTH: applicable examples (cases below standard value) [1, 6]: 8
- Serous ACTH: percentage of cases below standard value [1, 6]: 42.1%
- Serous ACTH: applicable examples (cases below standard value) [1, 7]: 2
- Serous ACTH: percentage of cases below standard value [1, 7]: 10.0%
- Death, severe adverse events or serious adverse event ([2]; 12 week administration): no death, severe adverse events or serious adverse event, were observed
- Tolerability ([2]; budesonide 2 mg, rectal administration twice a day for 6 weeks (so in the source), patients of ulcerative colitis): acceptable
- Manifestation of adverse events as a result of the drug tested ([2]; versus placebo group): couldn't admit between Placebo group
- Manifested frequency of the adverse event ([2]; versus placebo group): higher than in the placebo group
- Number of subjects with MMDAI endoscopic finding score 0 [3, 8]: 0 subjects
- Number of subjects with MMDAI endoscopic finding score 1 [3, 8]: 3 subjects
- Number of subjects with MMDAI endoscopic finding score 2 [3, 8]: 16 subjects
- Number of subjects with MMDAI endoscopic finding score 3 [3, 8]: 1 subjects
- Percentage of subjects with MMDAI endoscopic finding score 0 [3, 8]: (0.0) %
- Percentage of subjects with MMDAI endoscopic finding score 1 [3, 8]: (15.0) %
- Percentage of subjects with MMDAI endoscopic finding score 2 [3, 8]: (80.0) %
- Percentage of subjects with MMDAI endoscopic finding score 3 [3, 8]: (5.0) %
- Percentage with an endoscope view score of 0 in the 12th week, except for non-measured group ([3]; 6/15 examples, placebo 0% (0/13), administration continued for 6 more weeks): 40.0%
- Number of subjects with MMDAI endoscopic finding score 0 ([3]; 6th week, 12-week subjects): 4 subjects
- Number of subjects with MMDAI endoscopic finding score 1 ([3]; 6th week, 12-week subjects): 14 subjects
- Number of subjects with MMDAI endoscopic finding score 2 ([3]; 6th week, 12-week subjects): 2 subjects
- Number of subjects with MMDAI endoscopic finding score 3 ([3]; 6th week, 12-week subjects): 0 subjects
- Percentage of subjects with MMDAI endoscopic finding score 1 ([3]; 6th week, 12-week subjects): (70.0) %
- Number of subjects with MMDAI endoscopic finding score 0 ([3]; 12th week (Table 1)): 6 subjects
- Number of subjects with MMDAI endoscopic finding score 1 ([3]; 12th week (Table 1)): 8 subjects
- Number of subjects with MMDAI endoscopic finding score 2 ([3]; 12th week (Table 1)): 6 subjects
- Number of subjects with MMDAI endoscopic finding score 3 ([3]; 12th week (Table 1)): 0 subjects
- Percentage of subjects with MMDAI endoscopic finding score 0 ([3]; 12th week (Table 1)): (30.0) %
- Percentage of subjects with MMDAI endoscopic finding score 1 ([3]; 12th week (Table 1)): (40.0) %
- Percentage of subjects with MMDAI endoscopic finding score 2 ([3]; 12th week (Table 1)): (30.0) %
- Percentage of subjects with MMDAI endoscopic finding score 3 ([3]; 12th week (Table 1)): (0.0) %
- Number of subjects, 12th week Unmeasured, Total [3, 9]: 5 subjects
- Percentage of subjects, 12th week Unmeasured, Total [3, 9]: (25.0) %
- Number of subjects, endoscope finding score 12th week 0, Total [3, 10]: 6 subjects
- Number of subjects, endoscope finding score 12th week 1, Total [3, 10]: 7 subjects
- Number of subjects, endoscope finding score 12th week 2, Total [3, 10]: 2 subjects
- Number of subjects, endoscope finding score 12th week 3, Total [3, 10]: 0 subjects
- Percentage of subjects, endoscope finding score 12th week 0, Total [3, 10]: (30.0) %
- Percentage of subjects, endoscope finding score 12th week 1, Total [3, 10]: (35.0) %
- Percentage of subjects, endoscope finding score 12th week 2, Total [3, 10]: (10.0) %
- Percentage of subjects, endoscope finding score 12th week 3, Total [3, 10]: (0.0) %
- Number of subjects, endoscope finding score 6th week 0 / 12th week 0 [3, 11]: 0 subjects
- Number of subjects, endoscope finding score 6th week 0 / 12th week 1 [3, 11]: 1 subjects
- Number of subjects, endoscope finding score 6th week 0 / 12th week 2 [3, 11]: 0 subjects
- Number of subjects, endoscope finding score 6th week 0 / 12th week 3 [3, 11]: 0 subjects
- Number of subjects, endoscope finding score 6th week 0 / 12th week Unmeasured [3, 11]: 3 subjects
- Number of subjects, endoscope finding score 6th week 1 / 12th week 0 [3, 11]: 5 subjects
- Number of subjects, endoscope finding score 6th week 1 / 12th week 1 [3, 11]: 6 subjects
- Number of subjects, endoscope finding score 6th week 1 / 12th week 2 [3, 11]: 1 subjects
- Number of subjects, endoscope finding score 6th week 1 / 12th week 3 [3, 11]: 0 subjects
- Number of subjects, endoscope finding score 6th week 1 / 12th week Unmeasured [3, 11]: 2 subjects
- Number of subjects, endoscope finding score 6th week 2 / 12th week 0 [3, 11]: 1 subjects
- Number of subjects, endoscope finding score 6th week 2 / 12th week 1 [3, 11]: 0 subjects
- Number of subjects, endoscope finding score 6th week 2 / 12th week 2 [3, 11]: 1 subjects
- Number of subjects, endoscope finding score 6th week 2 / 12th week 3 [3, 11]: 0 subjects
- Number of subjects, endoscope finding score 6th week 2 / 12th week Unmeasured [3, 11]: 0 subjects
- Number of subjects, endoscope finding score 6th week 3 / 12th week 0 [3, 11]: 0 subjects
- Number of subjects, endoscope finding score 6th week 3 / 12th week 1 [3, 11]: 0 subjects
- Number of subjects, endoscope finding score 6th week 3 / 12th week 2 [3, 11]: 0 subjects
- Number of subjects, endoscope finding score 6th week 3 / 12th week 3 [3, 11]: 0 subjects
- Number of subjects, endoscope finding score 6th week 3 / 12th week Unmeasured [3, 11]: 0 subjects
- Percentage of subjects, endoscope finding score 6th week 0 / 12th week 0 [3, 11]: 0.0%
- Percentage of subjects, endoscope finding score 6th week 0 / 12th week 1 [3, 11]: 5.0%
- Percentage of subjects, endoscope finding score 6th week 0 / 12th week 2 [3, 11]: 0.0%
- Percentage of subjects, endoscope finding score 6th week 0 / 12th week 3 [3, 11]: 0.0%
- Percentage of subjects, endoscope finding score 6th week 0 / 12th week Unmeasured [3, 11]: 15.0%
- Percentage of subjects, endoscope finding score 6th week 1 / 12th week 1 [3, 11]: (30.0) %
- Percentage of subjects, endoscope finding score 6th week 1 / 12th week 3 [3, 11]: (0.0) %
- Percentage of subjects, endoscope finding score 6th week 1 / 12th week Unmeasured [3, 11]: (10.0) %
- Percentage of subjects, endoscope finding score 6th week 2 / 12th week 0 [3, 11]: 5.0%
- Percentage of subjects, endoscope finding score 6th week 2 / 12th week 1 [3, 11]: 0.0%
- Percentage of subjects, endoscope finding score 6th week 2 / 12th week 2 [3, 11]: 5.0%
- Percentage of subjects, endoscope finding score 6th week 2 / 12th week 3 [3, 11]: 0.0%
- Percentage of subjects, endoscope finding score 6th week 2 / 12th week Unmeasured [3, 11]: 0.0%
- Percentage of subjects, endoscope finding score 6th week 3 / 12th week 0 [3, 11]: 0.0%
- Percentage of subjects, endoscope finding score 6th week 3 / 12th week 1 [3, 11]: 0.0%
- Percentage of subjects, endoscope finding score 6th week 3 / 12th week 2 [3, 11]: 0.0%
- Percentage of subjects, endoscope finding score 6th week 3 / 12th week 3 [3, 11]: 0.0%
- Percentage of subjects, endoscope finding score 6th week 3 / 12th week Unmeasured [3, 11]: 0.0%
- Serous cortisol: applicable examples (cases below standard value) (serous cortisol; [5]): 0
- Serous cortisol: percentage of cases below standard value (serous cortisol; [5]): 0.0%
- Serous cortisol: percentage of cases below standard value (serous cortisol; 0th week (before prescription), 20 cases analysed, listed as budesonide): 0%
- Serous cortisol density (serous cortisol; 6th week and 12th week versus 0th week (before prescription)): low compared with the 0th week
- Serous cortisol: applicable examples (cases below standard value) (serous cortisol; [6]): 11
- Serous cortisol: percentage of cases below standard value (serous cortisol; [6]): 57.9%
- Serous cortisol: applicable examples (cases below standard value) (serous cortisol; [7]): 2
- Serous cortisol: percentage of cases below standard value (serous cortisol; [7]): 10.0%
- Recovery of subjects with both serous cortisol and serous ACTH density below the standard value in the 12th week (serous cortisol; by the after observation): mostly recovered to within the standard value
- Serous cortisol density after end of administration (serous cortisol; observed for 2-4 weeks after the end of the 12-week administration period): reverting to the value in the 0th week
- Solubility in water [4]: low solubility in water
